Experimental data published in patent US9326953B2, “Method and system for systemic delivery of growth arresting, lipid-derived bioactive compounds” (priority 2003, dated 2016).

Legend:
MDA cells [1] = test: TUNEL staining of cleaved DNA; assay type: cell-based, Human
Description: An investigation to determine whether C6-dependent growth inhibition correlates with enhanced apoptosis was undertaken. To confirm that C6 delivery leads to MDA cell apoptosis, TUNEL analysis (Upstate Biotechnology, Lake Placid, N.Y.) was performed, which stains cleaved DNA, a hallmark of cellular apoptosis (FIG. 7A).

[2] = Toxicity after intravenous injection; assay type: in vivo; settings: injection at 10 mg/kg
MDA cells [3] = test: [3H]thymidine cell proliferation assay; assay type: cell-based, Human; settings: [3H]thymidine incorporation, 10% FBS for 12 h of treatment; read-out: IC50 of C6, inhibition of MDA cell proliferation
Description: To determine the utility of conventional lipid formulations for the delivery of short-chain ceramide to MDA cells, a [^3H]thymidine proliferation assay was performed. Briefly, MDA cells were seeded at 3.5×10^4 cells/well in 24-well plates and grown overnight prior to 24 h of serum starvation. At hour 12 of serum starvation, cells were treated with liposomal or nonliposomal C6 for the remainder of serum starvation. Following serum starvation, media was then supplemented with FBS (10% final concentration) for an additional 12 h, and cellular proliferation was assayed with the addition of 0.5 mCi/ml [^3H]thymidine for the final 4 h of treatment. Cells were washed once with cold PBS and then twice with 10% trichloric acetic acid for 10 min. Cells were solubilized with 0.3 N NaOH, and [^3H]thymidine incorporation into acid-insoluble DNA was assessed with a scintillation counter.

In the case of `CCCCCCCCCCCCC/C=C/[C@@H](O)[C@H](CO)NC(=O)CCCCC` [nonliposomal C6, D-erythro-hexanoyl-sphingosine], the “DNA fragmentation (TUNEL) at 16 h” value (MDA cells [1]; 20 μM, 16 h of treatment) is reported as “induced DNA fragmentation”, the “DNA fragmentation (TUNEL) at 8 h” value (MDA cells [1]; cycling, serum-fed MDA cells, 8 h) is reported as “no DNA fragmentation” and the mice killed [2] is reported as 50%. The IC50 (MDA cells [3]) was 15 µM.
